Tested on: Plasmopara viticola
Assay: Test Example 1: spray test on grape seedlings inoculated with Plasmopara viticola (protective value)
Type: in vivo, Plasmopara viticola on grape (variety: Berry A)
Details: single active ingredient, wettable powder sprayed on grape seedlings before inoculation, assessed after one night plus 7 days; for pest or weed control at 50 ppm: Plasmopara viticola, 168 h, read-out: Actual protective value; for Actual protective value: 50 ppm
Description: Next, it is shown that the present invention compositions have an excellent controlling activity against plant diseases as test example. Generally, an expected controlling value, when two active ingredient compounds are mixed and applied, can be calculated by the Colby's formula described below. E=X+Y−(X×Y)/100 • X: protective value (%) when treatment is carried out by using an active ingredient compound A at the concentration of m ppm. • Y: protective value (%) when treatment is carried out by using an active ingredient compound B at the concentration of n ppm • E: protective value (%) when treatment is carried out by using the active ingredient compound A at the concentration of m ppm and the active ingredient compound B at the concentration of n ppm (hereinafter referred to as “expected protective value”) And, generally speaking, if actual protective value (%) when treatment is carried out by actually mixing two kinds of active ingredient compounds is not less than the expected protective value (%), it can be said that there is a mixing effect.
Sandy loam soil was compacted in a plastic pot, and a grape (variety: Berry A) was seeded and grown in a green house for 40 days. The test drug formulated to wettable powder according to Formulation Example 5, then, diluted with water to provide prescribed concentration, and these diluted solutions were sprayed onto stems and leaves so as to give sufficient adhesion on the surface of grape leaves. After that, a suspension of zoosporangia of Plasmopara viticola was inoculated by spraying to stems and leaves of the grape seedling. After inoculation, the grape seedling was first grown for one night at 23° C. under humid, then further grown for 7 days in the green house. Then, the ratio of diseased area (%) of Plasmopara viticola on stems and leaves of the grape seedling was investigated and the actual protective value was obtained according to the formula described below form the investigated result. protective value (%)={[the ratio of diseased area of non treated plant (%)−the ratio of diseased area of treated plant (%)/]/[the ratio of diseased area of non treated plant (%)]}×100

`C#CCOc1ccc(CCC(=O)NC(C#N)c2ccc(C)cc2)cc1OC` (stereo not drawn) [(I-6), N-{1-(4-methylphenyl)-1-cyanomethyl)-3-(3-methoxy-4-(2-propynyloxy)phenyl}propanamide] was tested. Which pest or weed control at 50 ppm did it give?
Its pest or weed control at 50 ppm is 100%.

With `C#CCOc1ccc(CCC(=S)NCc2ccc(Br)cc2)cc1OC` [(I-19), N-(4-bromobenzyl)-3-{3-methoxy-4-(2-propynyloxy)phenyl)prop anthioamide] as the compound, how does the pest or weed control at 50 ppm read?
The pest or weed control at 50 ppm was 100%.

`C#CCOc1ccc(CCC(=S)NCc2ccc(C)cc2)cc1OC` [(I-3), N-(4-methylbenzyl)-3-(3-methoxy-4-(2-propynyloxy)phenyl}pro panthioamide] was tested. Which pest or weed control at 50 ppm did it give?
Its pest or weed control at 50 ppm is 100%.

How did the pest or weed control at 50 ppm turn out when `COc1ccc(C(=CC(=O)N2CCOCC2)c2ccc(Cl)cc2)cc1OC` [dimethomorph, 4-[3-(4-chlorophenyl)-3-(3,4-dimethoxyphenyl)acryloyl]morph oline, reference compound] was run?
The pest or weed control at 50 ppm was 100%.

For `CCOc1ccc(CCC(=O)NC(C#N)c2ccc(Cl)cc2)cc1OC` (stereo not drawn) [(I-17), N-{1-(4-chlorophenyl)-1-cyanomethyl)-3-(3-methoxy-4-ethoxyphenyl)propanamide], which pest or weed control at 50 ppm is on record?
Its pest or weed control at 50 ppm is 100%.

With `C#CCOc1ccc(CCC(=S)NCc2ccc3c(c2)CCC3)cc1OC` [(I-23), N-(indan-5-ylmethyl)-3-(3-methoxy-4-(2-propynyloxy)phenyl)p ropanthioamide] as the compound, how does the pest or weed control at 50 ppm read?
The pest or weed control at 50 ppm was 100%.

For `C#CCOc1ccc(CCC(=S)NCc2ccc(Cl)c(Cl)c2)cc1OC` [(I-14), N-(3,4-dichlorobenzyl)-3-{3-methoxy-4-(2-propynyloxy)phenyl}propanthioamide], which pest or weed control at 50 ppm is on record?
Its pest or weed control at 50 ppm is 100%.

`C#CCOc1ccc(CCC(=O)NCc2ccc(Br)cc2)cc1OC` [(I-18)] was tested. Which Actual protective value did it give?
The Actual protective value was 100%.

Which pest or weed control at 50 ppm does the source give for `C#CCOc1ccc(CCC(=S)NCc2ccc(Cl)cc2)cc1OC` [(I-13), N-(4-chlorobenzyl)-3-(3-methoxy-4-(2-propynyloxy)phenyl}pro panthioamide] here?
Its pest or weed control at 50 ppm is 100%.

How did the pest or weed control at 50 ppm turn out when `C#CCOc1ccc(CCC(=O)NCc2ccc(Cl)c(Cl)c2)cc1OC` [(I-11), N-(3,4-dichlorobenzyl)-3-{3-methoxy-4-(2-propynyloxy)phenyl}propanamide] was run?
The pest or weed control at 50 ppm was 100%.

For `CCOc1ccc(CCC(=O)NC(C#N)c2ccc(C)cc2)cc1OC` (stereo not drawn) [(I-7), N-{1-(4-methylphenyl)-1-cyanomethyl}-3-(3-methoxy-4-ethoxyphenyl)propanamide], which pest or weed control at 50 ppm is on record?
Its pest or weed control at 50 ppm is 100%.

With `C#CCOc1ccc(CCC(=O)NC(C#N)c2ccc(Br)cc2)cc1OC` (stereo not drawn) [(I-20), N-{1-(4-bromophenyl)-1-cyanomethyl}-3-(3-methoxy-4-(2-propynyloxy)phenyl}propanamide] as the compound, how does the pest or weed control at 50 ppm read?
The pest or weed control at 50 ppm was 100%.

For `C#CCOc1ccc(CCC(=S)NCc2ccc3c(c2)CCCC3)cc1OC` [(I-26), N-(5,6,7,8-tetrahydronaphthalene-2-ylmethyl)-3-(3-methoxy-4-(2-propynyloxy)phenyl}propanthioamide], which pest or weed control at 50 ppm is on record?
The pest or weed control at 50 ppm was 100%.

`CCOc1ccc(CCC(=O)NC(C#N)c2ccc(Br)cc2)cc1OC` (stereo not drawn) [(I-21)] was tested. Which Actual protective value did it give?
The Actual protective value was 100%.

`C#CCOc1ccc(CCC(=O)NCc2ccc3c(c2)CCC3)cc1OC` [(I-22), N-{(indan-5-yl)methyl}-3-{3-methoxy-4-(2-propynyloxy)phenyl}propanamide] was tested. Which pest or weed control at 50 ppm did it give?
Its pest or weed control at 50 ppm is 100%.

`C#CCOc1ccc(CCC(=S)NCc2ccc(C)c(C)c2)cc1OC` [(I-4), N-(3,4-dimethylbenzyl)-3-{3-methoxy-4-(2-propynyloxy)phenyl}propanthioamide] was tested. Which pest or weed control at 50 ppm did it give?
The pest or weed control at 50 ppm was 100%.

With `C#CCOc1ccc(CCC(=O)NC(C#N)c2ccc3c(c2)CCC3)cc1OC` (stereo not drawn) [(I-24), N-{1-(indan-5-yl)-1-cyanomethyl}-3-{3-methoxy-4-(2-propynyloxy)phenyl}propanamide] as the compound, how does the pest or weed control at 50 ppm read?
The pest or weed control at 50 ppm was 100%.

`C#CCOc1ccc(CCC(=O)NC(C#N)c2ccc3c(c2)CCCC3)cc1OC` (stereo not drawn) [(I-27), N-{1-(5,6,7,8-tetrahydronaphthalene-2-yl)-1-cyanomethyl}-3-(3-methoxy-4-(2-propyonyloxy)phenyl)propanamide] was tested. Which Actual protective value did it give?
The Actual protective value was 100%.

With `C#CCOc1ccc(CCC(=O)NCc2ccc(Cl)cc2)cc1OC` [(I-10), N-(4-chlorobenzyl)-3-(3-methoxy-4-(2-propynyloxy)phenyl}pro panamide] as the compound, how does the pest or weed control at 50 ppm read?
Its pest or weed control at 50 ppm is 100%.

With `C#CCOc1ccc(CCC(=S)NCc2ccc3ccccc3c2)cc1OC` [(I-29), N-{(naphthalene-2-yl)methyl}-3-{3-methoxy-4-(2-propynyloxy)phenyl)propanthioamide] as the compound, how does the pest or weed control at 50 ppm read?
The pest or weed control at 50 ppm was 100%.

With `C#CCOc1ccc(CCC(=O)NCc2ccc(CC)cc2)cc1OC` [(I-8), N-(4-ethylbenzyl)-3-{3-methoxy-4-(2-propynyloxy)phenyl}prop anamide] as the compound, how does the pest or weed control at 50 ppm read?
Its pest or weed control at 50 ppm is 100%.

How did the pest or weed control at 50 ppm turn out when `C#CCOc1ccc(CCC(=O)NC(C#N)c2ccccc2)cc1OC` (stereo not drawn) [(I-5), N-(1-phenyl-1-cyanomethyl)-3-{3-methoxy-4-(2-propynyloxy)phenyl}propanamide] was run?
The pest or weed control at 50 ppm was 100%.

With `C#CCOc1ccc(CCC(=S)NCc2ccc(Cl)cc2)cc1OCC` [(I-15), N-(4-chlorobenzyl)-3-(3-ethoxy-4-(2-propynyloxy)phenyl)prop anthioamide] as the compound, how does the pest or weed control at 50 ppm read?
The pest or weed control at 50 ppm was 100%.

With `C#CCOc1ccc(CCC(=O)NCc2ccc(C)cc2)cc1OC` [(I-1), N-(4-methylbenzyl)-3-{3-methoxy-4-(2-propynyloxy)phenyl}pro panamide] as the compound, how does the pest or weed control at 50 ppm read?
The pest or weed control at 50 ppm was 100%.

For `C#CCOc1ccc(CCC(=O)NCc2ccc(Cl)cc2)cc1OCC` [(I-12), N-(4-chlorobenzyl)-3-{3-ethoxy-4-(2-propionyloxy)phenyl}pro panamide], which Actual protective value is on record?
The Actual protective value was 100%.

`C#CCOc1ccc(CCC(=O)NCc2ccc3ccccc3c2)cc1OC` [(I-28), N-{(naphthalene-2-yl)methyl}-3-{3-methoxy-4-(2-propynyloxy)phenyl}propanamide] was tested. Which pest or weed control at 50 ppm did it give?
Its pest or weed control at 50 ppm is 100%.

For `C#CCOc1ccc(CCC(=O)NC(C#N)c2ccc(CC)cc2)cc1OC` (stereo not drawn) [(I-9), N-{1-(4-ethylphenyl)-1-cyanomethyl)-3-(3-methoxy-4-(2-propynyloxy)phenyl)propanamide], which pest or weed control at 50 ppm is on record?
The pest or weed control at 50 ppm was 100%.

Which Actual protective value does the source give for `C#CCOc1ccc(CCC(=O)NCc2ccc(C)c(C)c2)cc1OC` [(I-2)] here?
The Actual protective value was 100%.

`C#CCOc1ccc(CCC(=O)NC(C#N)c2ccc(Cl)cc2)cc1OC` (stereo not drawn) [(I-16), N-{1-(4-chlorophenyl)-1-cyanomethyl}-3-{3-methoxy-4-(2-propynyloxy)phenyl}propanamide] was tested. Which pest or weed control at 50 ppm did it give?
Its pest or weed control at 50 ppm is 100%.

`C#CCOc1ccc(CCC(=O)NCc2ccc3c(c2)CCCC3)cc1OC` [(I-25), N-((5,6,7,8-tetrahydronaphthalene-2-yl)methyl)-3-(3-methoxy-4-(2-propynyloxy)phenyl)propanamide] was tested. Which pest or weed control at 50 ppm did it give?
Its pest or weed control at 50 ppm is 100%.

From patent US20050282888A1, “Fungicidal composition” (Sumitomo Chemical Company, Limited, priority 2004, published 2005)
